Key:
Assay type in all cases: cell-based
Conditions in all cases: after 10, 20, 40 and 60 minutes at all dilutions 1:100, 1:200, 1:400, 1:800
[1] = system: Candida albicans; assay: Antimicrobial screening by agar dilution, Candida albicans
Procedure: (§1) The antimicrobial properties of the 4-[4,5-bis(4-bromophenyl)-1-hexyl-1H-imidazol-2-yl]isoquinolin-3-ol was studied by the method of agar dilution. Test solutions of each compound was prepared in concentration of 1% using dimethylformamide as a solvent then they are diluted in physiological solution to obtain the final experimental dilutions 1:100, 1:200, 1:400, 1:800. The effect of these substances are compared with furacillin in a controlled study. The testing microbes used were gram positive bacteria Staphylococcus aureus, gram negative bacteria Pseudomonas aeruginosa and Escherichia coli and Candida albicans fungi were taken. The experiments used for this survey were meat-pentonlu agar (EPA) for cultivation of bacteria and Saburo environment for fungi. Each experiment used 1 ml of test solution on each plate 500 min. Add 2 drops of emulsified with microbes feel. All experimental samples were taken from the agar after 10, 20, 40, 60 minutes in the environment on the basis of Patrk planted. Bacteria were cultivated at a temperature of 37° C. for 1 day and the mushroom was kept in a thermostat for […] at a temperature of 28° C. in the. Then results were checked.

[2] = system: Escherichia coli; assay: Antimicrobial screening by agar dilution, Escherichia coli
Procedure: as §1

[3] = system: Pseudomonas aeruginosa; assay: Antimicrobial screening by agar dilution, Pseudomonas aeruginosa
Procedure: as §1

[4] = system: Staphylococcus aureus; assay: Antimicrobial screening by agar dilution, Staphylococcus aureus
Procedure: as §1

Measured: inhibition activity (in words)

CCCCCCn1c(-c2c(O)ncc3ccccc23)nc(-c2ccc(Br)cc2)c1-c1ccc(Br)cc1 [4-[4,5-bis(4-bromophenyl)-1-hexyl-1H-imidazol-2-yl]isoquinolin-3-ol]
highest inhibition activity: all assays above

Source: patent US12180181B1, “4-[4,5-bis(4-bromophenyl)-1-hexyl-1H-imidazol-2-yl]isoquinolin-3-ol as an antimicrobial compound” (KING FAISAL UNIVERSITY, priority 2023, dated 2024)
